Numbered stars: 1 amine (or outer) side, 2 acyl side, 3 side chain; on linkers, the order of the positions; unused ones are H or OH. Bridge positions count the residues as written; N and C are the ends. Square brackets hold non-standard residues; d marks the D form. Peptide text beside a SMILES is read from it. * marks the point of attachment. Trp(1-CH2COOH) = N[C@@H](Cc1cn(CC(=O)O)c2ccccc12)C(=O)O; NMePhe(4-COOH) = CN[C@@H](Cc1ccc(C(=O)O)cc1)C(=O)O; X1 = O=C([C@H](Cc1cccc(C(=O)[*:3])c1)N[*:1])[*:2]; Nle(6-morpholino) = N[C@@H](CCCCN1CCOCC1)C(=O)O; Trp(7-aza) = N[C@@H](Cc1c[nH]c2ncccc12)C(=O)O; NMePhe(3-Cl) = CN[C@@H](Cc1cccc(Cl)c1)C(=O)O; 3Pal(6-NH2) = Nc1ccc(C[C@H](N)C(=O)O)cn1; NMeW = CN[C@@H](Cc1c[nH]c2ccccc12)C(=O)O; NMeY = CN[C@@H](Cc1ccc(O)cc1)C(=O)O; Nva(3-Et) = CCC(CC)[C@H](N)C(=O)O; NMeF = CN[C@@H](Cc1ccccc1)C(=O)O; 4Pal = N[C@@H](Cc1ccncc1)C(=O)O; PEG4 = NCCOCCOCCOCCOCCC(=O)O; Carboxymethyl = O=C(O)C*
Tests used:
[1] = target: T1, human transferrin receptor (hTfR) (Homo sapiens, UniProt P02786); test: SPR measurement under pH 6.0 conditions (Biacore T200, NTA chip, immobilized hTfR); assay type: binding; settings: read-out: hTfR SPR pH6.0 KD
T1 sequence (P02786 whole entry): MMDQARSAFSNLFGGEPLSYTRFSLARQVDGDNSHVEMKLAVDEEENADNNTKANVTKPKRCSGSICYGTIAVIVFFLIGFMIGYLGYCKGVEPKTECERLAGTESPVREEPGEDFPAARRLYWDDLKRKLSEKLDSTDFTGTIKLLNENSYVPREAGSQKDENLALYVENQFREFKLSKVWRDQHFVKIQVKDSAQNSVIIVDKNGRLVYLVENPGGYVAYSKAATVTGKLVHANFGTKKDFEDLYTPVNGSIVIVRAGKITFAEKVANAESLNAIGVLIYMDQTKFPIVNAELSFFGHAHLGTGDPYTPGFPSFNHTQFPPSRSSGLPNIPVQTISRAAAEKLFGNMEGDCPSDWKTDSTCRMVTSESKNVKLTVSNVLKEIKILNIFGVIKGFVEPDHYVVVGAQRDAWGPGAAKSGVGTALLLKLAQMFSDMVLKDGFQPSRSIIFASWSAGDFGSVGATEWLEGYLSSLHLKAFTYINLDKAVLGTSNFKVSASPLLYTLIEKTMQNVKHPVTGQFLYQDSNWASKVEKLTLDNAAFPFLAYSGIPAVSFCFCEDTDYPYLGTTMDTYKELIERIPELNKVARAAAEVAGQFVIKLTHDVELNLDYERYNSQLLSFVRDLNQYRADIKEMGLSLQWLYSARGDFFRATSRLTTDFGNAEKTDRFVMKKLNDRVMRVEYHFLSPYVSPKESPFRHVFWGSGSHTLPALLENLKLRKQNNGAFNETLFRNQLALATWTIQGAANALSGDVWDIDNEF

[2] = target: T1, human transferrin receptor (hTfR); test: SPR measurement under pH 7.4 conditions (Biacore T200, CM3 chip, hTfR captured by His Tag antibody); assay type: binding; settings: read-out: hTfR SPR pH7.4 KD
[3] = SPR, pH 6.0, peptide with the linker named in the table
[4] = SPR, pH 7.4, peptide with the linker named in the table

Kd [1, 3]	Kd [2, 4]	Kd ([1]; pH 6.0, single-cycle kinetics)	Kd ([2]; pH 7.4, single-cycle kinetics)	SMILES
0.0202 µM	0.0165 µM			CCC(CC)[C@@H]1NC(=O)[C@H](Cc2ccc(O)cc2)NC(=O)[C@H](Cc2ccc(N)nc2)NC(=O)[C@H](CC(N)=O)NC(=O)[C@H](Cc2c[nH]c3ccccc23)N(C)C(=O)[C@H](C(C)C)NC(=O)[C@H](Cc2ccccc2)N(C)C(=O)[C@H](C(C)C)NC(=O)[C@H](C)NC(=O)CSC[C@@H](C(=O)NCCOCCOCCOCCOCCC(N)=O)NC(=O)[C@H](Cc2ccc(O)cc2)N(C)C(=O)[C@H](Cc2ccc(O)cc2)NC(=O)[C@H](CCCNC(=N)N)NC(=O)[C@H](CCCCN)NC(=O)[C@H]([C@@H](C)CC)NC1=O [compound 133] ({CH2CO}-AV[NMeF]V[NMeW]N[3Pal(6-NH2)]Y[Nva(3-Et)]IKRY[NMeY]C[PEG4]-NH2; thioether N-15)
		0.576 µM	15.8 µM	CCC(CC)[C@@H]1NC(=O)[C@H](Cc2ccc(OCC(=O)O)cc2)NC(=O)[C@H](Cc2ccc(N)nc2)NC(=O)[C@H](CC(N)=O)NC(=O)[C@H](Cc2cn(CC(=O)O)c3ccccc23)NC(=O)[C@H](C(C)C)NC(=O)[C@H](Cc2cccc(Cl)c2)N(C)C(=O)[C@H](C(C)C)NC(=O)[C@H](C)NC(=O)CSC[C@@H](C(=O)NCCOCCOCCOCCOCCC(N)=O)NC(=O)[C@H](Cc2ccc(C(=O)O)cc2)N(C)C(=O)[C@H](Cc2ccncc2)NC(=O)[C@H](CCCCN2CCOCC2)NC(=O)[C@H](CCC(N)=O)NC(=O)[C@H]([C@@H](C)CC)NC1=O [compound 49] ({CH2CO}-AV[NMePhe(3-Cl)]V[Trp(1-CH2COOH)]N[3Pal(6-NH2)]Y(Carboxymethyl)[Nva(3-Et)]IQ[Nle(6-morpholino)][4Pal][NMePhe(4-COOH)]C[PEG4]-NH2; thioether N-15)
		0.339 µM	0.0366 µM	CCC(CC)[C@@H]1NC(=O)[C@H](Cc2ccc(OCC(=O)O)cc2)NC(=O)[C@H](Cc2ccc(N)nc2)NC(=O)[C@H](CC(N)=O)NC(=O)[C@H](Cc2c[nH]c3ncccc23)NC(=O)[C@H](C(C)C)NC(=O)[C@H](Cc2cccc(Cl)c2)N(C)C(=O)[C@H](C(C)C)NC(=O)[C@H](C)NC(=O)CSC[C@@H](C(=O)NCCOCCOCCOCCOCCC(N)=O)NC(=O)[C@H](Cc2ccc(O)cc2)N(C)C(=O)[C@H](Cc2cccc(C(=O)NCCOCCOCCOCCOCCC(=O)O)c2)NC(=O)[C@H](CCCNC(=N)N)NC(=O)[C@H](CCC(N)=O)NC(=O)[C@H]([C@@H](C)CC)NC1=O [compound 44] ({CH2CO}-AV[NMePhe(3-Cl)]V[Trp(7-aza)]N[3Pal(6-NH2)]Y(Carboxymethyl)[Nva(3-Et)]IQR[X1](PEG4)[NMeY]C[PEG4]-NH2; thioether N-15)
0.0106 µM	0.00133 µM			CCC(CC)[C@@H]1NC(=O)[C@H](Cc2ccc(OC)cc2)NC(=O)[C@H](Cc2ccc(O)cc2)NC(=O)[C@H](CC(N)=O)NC(=O)[C@H](Cc2c[nH]c3ncccc23)NC(=O)[C@H](C(C)C)NC(=O)[C@H](Cc2cccc(Cl)c2)N(C)C(=O)[C@H](C(C)C)NC(=O)[C@H](C)NC(=O)CSC[C@@H](C(=O)NCCOCCOCCOCCOCCC(N)=O)NC(=O)[C@H](Cc2ccc(C(=O)O)cc2)N(C)C(=O)[C@H](Cc2ccncc2)NC(=O)[C@H](CCCNC(=N)N)NC(=O)[C@H](CCCCN2CCOCC2)NC(=O)[C@H]([C@@H](C)CC)NC1=O [compound 114] ({CH2CO}-AV[NMePhe(3-Cl)]V[Trp(7-aza)]NYY(Me)[Nva(3-Et)]I[Nle(6-morpholino)]R[4Pal][NMePhe(4-COOH)]C[PEG4]-NH2; thioether N-15)
